Measured values reported in patent publication US20250230193A1, “CYCLIC COMPOUND HAVING SELECTIVE KRAS INHIBITORY EFFECT ON HRAS AND NRAS” (CHUGAI SEIYAKU KABUSHIKI KAISHA, priority 2022, published 2025).

Experiments:
[1] = molecular target: GDP-bound NRAS wild-type protein (Homo sapiens, UniProt P01111); test: Binding to NRAS by surface plasmon resonance (SPR), Single Cycle Kinetics; settings: SPR, GDP-bound NRAS wild-type vs GDP-bound KRAS wild-type
[2] = molecular target: GDP-bound HRAS wild-type protein (Homo sapiens, UniProt P01112); test: Binding to HRAS by surface plasmon resonance (SPR), Single Cycle Kinetics; settings: SPR, GDP-bound HRAS wild-type vs GDP-bound KRAS wild-type
Chain of GDP-bound HRAS wild-type protein (P01112 whole entry): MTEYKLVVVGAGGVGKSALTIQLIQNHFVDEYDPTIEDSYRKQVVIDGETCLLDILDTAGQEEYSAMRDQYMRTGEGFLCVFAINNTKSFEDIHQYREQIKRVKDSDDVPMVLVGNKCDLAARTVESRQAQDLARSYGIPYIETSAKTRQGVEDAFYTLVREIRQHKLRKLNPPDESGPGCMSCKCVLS

Chain of GDP-bound NRAS wild-type protein (P01111 whole entry): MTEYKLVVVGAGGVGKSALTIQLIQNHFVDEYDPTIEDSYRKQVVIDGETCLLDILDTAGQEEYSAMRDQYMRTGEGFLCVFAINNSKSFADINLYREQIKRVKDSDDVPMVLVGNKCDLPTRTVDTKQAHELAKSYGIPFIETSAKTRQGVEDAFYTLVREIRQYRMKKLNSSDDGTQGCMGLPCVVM

Structure (SMILES)	NRAS/KRAS (ratio of KD value with respect to NRAS to KD value with respect to KRAS) [1]	HRAS/KRAS (ratio of KD value with respect to HRAS to KD value with respect to KRAS) [2]
CCC(CC)[C@H]1C(=O)N(C)[C@H](C(=O)N(C)C)CC(=O)N(C)[C@@H](COC)C(=O)N[C@@H]([C@@H](C)CC)C(=O)N(C)CC(=O)N(C)[C@H]2C/C=C\CCN(C2=O)[C@@H](CC2CCC(F)(F)CC2)C(=O)N(C)CC(=O)N[C@@H](CCc2ccc(C(F)(F)F)c(OC)c2)C(=O)N2C[C@@H](C)C[C@H]2C(=O)NC2(CC(C)(C)C2)C(=O)N1C [PP2442]	A (a compound having 10 or more and less than 20 is denoted as A)	A (a compound having 10 or more and less than 20 is denoted as A)
CCO[C@@H]1C[C@H]2C(=O)NC3(CC(C)(C)C3)C(=O)N(C)[C@@H](C(CC)CC)C(=O)N(C)[C@H](C(=O)N(C)C)CC(=O)N(C)[C@@H](COC)C(=O)N[C@@H]([C@@H](C)CC)C(=O)N(C)CC(=O)N(C)[C@H]3C/C=C\CCN(C3=O)[C@@H](CC3CCC(F)(F)CC3)C(=O)N(C)CC(=O)N[C@@H](CCc3ccc(C(F)(F)F)c(Cl)c3)C(=O)N2C1 [PP2444]	A (a compound having 10 or more and less than 20 is denoted as A)	A (a compound having 10 or more and less than 20 is denoted as A)
CCOC[C@H]1C(=O)N[C@@H]([C@@H](C)CC)C(=O)N(C)CC(=O)N(C)[C@H]2C/C=C\CCN(C2=O)[C@@H](Cc2ccc(C)cc2)C(=O)N(C)CC(=O)N[C@@H](CCc2ccc(C(F)(F)F)c(OC)c2)C(=O)N2C[C@H](OCC)C[C@H]2C(=O)NC2(CC(C)(C)C2)C(=O)N(C)[C@@H](C2CCCC2)C(=O)N(C)[C@H](C(=O)N(C)CC)CC(=O)N1C [PP2445]	A (a compound having 10 or more and less than 20 is denoted as A)	B (a compound having 3 or more and less than 10 is denoted as B)
CCOC[C@H]1C(=O)N[C@@H]([C@@H](C)CC)C(=O)N(C)CC(=O)N(C)[C@H]2C/C=C\CCN(C2=O)[C@@H](CC2CCC(F)(F)CC2)C(=O)N(C)CC(=O)N[C@@H](CCc2ccc(C(F)(F)F)c(OC)c2)C(=O)N2C[C@H](OCC)C[C@H]2C(=O)NC2(CC(C)(C)C2)C(=O)N(C)[C@@H](C(CC)CC)C(=O)N(C)[C@H](C(=O)N(C)C)CC(=O)N1C [PP2446]	A (a compound having 10 or more and less than 20 is denoted as A)	A (a compound having 10 or more and less than 20 is denoted as A)
CCCOC[C@H]1C(=O)N[C@@H]([C@@H](C)CC)C(=O)N(C)CC(=O)N(C)[C@H]2C/C=C\CCN(C2=O)[C@@H](Cc2ccc(C)cc2)C(=O)N(C)CC(=O)N[C@@H](CCc2ccc(C(F)(F)F)c(OC)c2)C(=O)N2C[C@@H](C)C[C@H]2C(=O)NC2(CC(C)(C)C2)C(=O)N(C)[C@@H](C2CCCC2)C(=O)N(C)[C@H](C(=O)N(C)C)CC(=O)N1C [PP2447]	A (a compound having 10 or more and less than 20 is denoted as A)	B (a compound having 3 or more and less than 10 is denoted as B)
CCC(CC)[C@H]1C(=O)N(C)[C@H](C(=O)N(C)C)CC(=O)N(C)[C@@H](COC)C(=O)N[C@@H]([C@@H](C)CC)C(=O)N(C)CC(=O)N(C)[C@H]2C/C=C\CCN(C2=O)[C@@H](CC2CCC(F)(F)CC2)C(=O)N(C)CC(=O)N[C@@H](CCc2cc(F)c(C(F)(F)F)c(F)c2)C(=O)N2C[C@@H](C)C[C@H]2C(=O)NC2(CC(C)(C)C2)C(=O)N1C [PP2448]	A (a compound having 10 or more and less than 20 is denoted as A)	A (a compound having 10 or more and less than 20 is denoted as A)
CCCOC[C@H]1C(=O)N[C@@H]([C@@H](C)CC)C(=O)N(C)CC(=O)N(C)[C@H]2C/C=C\CCN(C2=O)[C@@H](Cc2ccc(C)cc2)C(=O)N(C)CC(=O)N[C@@H](CCc2ccc(C(F)(F)F)c(OC)c2)C(=O)N2C[C@H](OCC)C[C@H]2C(=O)NC2(CC(C)(C)C2)C(=O)N(C)[C@@H](C2CCCC2)C(=O)N(C)[C@H](C(=O)N(C)C)CC(=O)N1C [PP2449]	A (a compound having 10 or more and less than 20 is denoted as A)	A (a compound having 10 or more and less than 20 is denoted as A)
CCOC[C@H]1C(=O)N[C@@H]([C@@H](C)CC)C(=O)N(C)CC(=O)N(C)[C@H]2C/C=C\CCN(C2=O)[C@@H](CC2CCC(F)(F)CC2)C(=O)N(C)CC(=O)N[C@@H](CCc2cc(F)c(C(F)(F)F)c(F)c2)C(=O)N2C[C@H](OCC)C[C@H]2C(=O)NC2(CC(C)(C)C2)C(=O)N(C)[C@@H](C(CC)CC)C(=O)N(C)[C@H](C(=O)N(C)C)CC(=O)N1C [PP2450]	A (a compound having 10 or more and less than 20 is denoted as A)	A (a compound having 10 or more and less than 20 is denoted as A)
CCOC[C@H]1C(=O)N[C@@H]([C@@H](C)CC)C(=O)N(C)CC(=O)N(C)[C@H]2C/C=C\CCN(C2=O)[C@@H](Cc2ccc(C)cc2)C(=O)N(C)CC(=O)N[C@@H](CCc2ccc(C(F)(F)F)c(Cl)c2)C(=O)N2C[C@@H](C)C[C@H]2C(=O)NC2(CC(C)(C)C2)C(=O)N(C)[C@@H](C2CCCC2)C(=O)N(C)[C@H](C(=O)N(C)CC)CC(=O)N1C [PP2451]	A (a compound having 10 or more and less than 20 is denoted as A)	A (a compound having 10 or more and less than 20 is denoted as A)
CCO[C@@H]1C[C@H]2C(=O)NC3(CC(C)(C)C3)C(=O)N(C)[C@@H](C(CC)CC)C(=O)N(C)[C@H](C(=O)N(C)C)CC(=O)N(C)[C@@H](COC)C(=O)N[C@@H]([C@@H](C)CC)C(=O)N(C)CC(=O)N(C)[C@H]3C/C=C\CCN(C3=O)[C@@H](CC3CCCCC3)C(=O)N(C)CC(=O)N[C@@H](CCc3ccc(C(F)(F)F)c(OC)c3)C(=O)N2C1 [PP2452]	A (a compound having 10 or more and less than 20 is denoted as A)	A (a compound having 10 or more and less than 20 is denoted as A)
CCCOC[C@H]1C(=O)N[C@@H]([C@@H](C)CC)C(=O)N(C)CC(=O)N(C)[C@H]2C/C=C\CCN(C2=O)[C@@H](Cc2ccc(C)cc2)C(=O)N(C)CC(=O)N[C@@H](CCc2ccc(C(F)(F)F)c(Cl)c2)C(=O)N2C[C@@H](C)C[C@H]2C(=O)NC2(CC(C)(C)C2)C(=O)N(C)[C@@H](C2CCCC2)C(=O)N(C)[C@H](C(=O)N(C)C)CC(=O)N1C [PP2453]	A (a compound having 10 or more and less than 20 is denoted as A)	A (a compound having 10 or more and less than 20 is denoted as A)
CCC(CC)[C@H]1C(=O)N(C)[C@H](C(=O)N(C)C)CC(=O)N(C)[C@@H](COC)C(=O)N[C@@H]([C@@H](C)CC)C(=O)N(C)CC(=O)N(C)[C@H]2C/C=C\CCN(C2=O)[C@@H](CC2CCC(F)(F)CC2)C(=O)N(C)CC(=O)N[C@@H](CCc2ccc(C(F)(F)F)c(Cl)c2)C(=O)N2C[C@@H](C)C[C@H]2C(=O)NC2(CC(C)(C)C2)C(=O)N1C [PP2454]	AA (a compound having 20 or more is denoted as AA)	A (a compound having 10 or more and less than 20 is denoted as A)
CC[C@H](C)[C@@H]1NC(=O)[C@H](COC)N(C)C(=O)C[C@@H](C(=O)N(CC)CC)N(C)C(=O)[C@H](C2CCCC2)N(C)C(=O)C2(CC(C)(C)C2)NC(=O)[C@@H]2C[C@H](C)CN2C(=O)[C@H](CCc2cc(F)c(C(F)(F)F)c(F)c2)NC(=O)CN(C)C(=O)[C@H](Cc2ccc(C)cc2)N2CC/C=C\C[C@@H](C2=O)N(C)C(=O)CN(C)C1=O [PP2455]	AA (a compound having 20 or more is denoted as AA)	A (a compound having 10 or more and less than 20 is denoted as A)
CCO[C@@H]1C[C@H]2C(=O)NC3(CC(C)(C)C3)C(=O)N(C)[C@@H](C(CC)CC)C(=O)N(C)[C@H](C(=O)N(C)C)CC(=O)N(C)[C@@H](COC)C(=O)N[C@@H]([C@@H](C)CC)C(=O)N(C)CC(=O)N(C)[C@H]3C/C=C\CCN(C3=O)[C@@H](CC3CCCCC3)C(=O)N(C)CC(=O)N[C@@H](CCc3cc(F)c(C(F)(F)F)c(F)c3)C(=O)N2C1 [PP2456]	A (a compound having 10 or more and less than 20 is denoted as A)	A (a compound having 10 or more and less than 20 is denoted as A)
CCOC[C@H]1C(=O)N[C@@H]([C@@H](C)CC)C(=O)N(C)CC(=O)N(C)[C@H]2C/C=C\CCN(C2=O)[C@@H](Cc2ccc(C)cc2)C(=O)N(C)CC(=O)N[C@@H](CCc2cc(F)c(C(F)(F)F)c(F)c2)C(=O)N2C[C@@H](C)C[C@H]2C(=O)NC2(CC(C)(C)C2)C(=O)N(C)[C@@H](C2CCCC2)C(=O)N(C)[C@H](C(=O)N(C)CC)CC(=O)N1C [PP2457]	A (a compound having 10 or more and less than 20 is denoted as A)	A (a compound having 10 or more and less than 20 is denoted as A)
CCOC[C@H]1C(=O)N[C@@H]([C@@H](C)CC)C(=O)N(C)CC(=O)N(C)[C@H]2C/C=C\CCN(C2=O)[C@@H](CC2CCC(F)(F)CC2)C(=O)N(C)CC(=O)N[C@@H](CCc2ccc(C(F)(F)F)c(OC)c2)C(=O)N2C[C@@H](C)C[C@H]2C(=O)NC2(CC(C)(C)C2)C(=O)N(C)[C@@H](C(CC)CC)C(=O)N(C)[C@H](C(=O)N(C)C)CC(=O)N1C [PP2458]	A (a compound having 10 or more and less than 20 is denoted as A)	A (a compound having 10 or more and less than 20 is denoted as A)
